Laboratory results published in patent US4705786A, “Novel oxadiazolyl-1,4-dihydropyridines useful as antihypertensive agents” (Sumitomo Pharmaceuticals Company, Limited, priority 1984, dated 1987).
Counter-ions that a name gives are not always drawn.

Assays:
[1] = molecular target: isolated strips of the descending aorta (Rattus norvegicus, UniProt P22002); assay: cell-based; set-up: species or system Male Wistar rats; conditions: for Kb: isolated rat aorta, Ca2+ dose-response curves in 25 mM K+, Arunlakshana method, read-out: pA2 (converted)
isolated strips of the descending aorta, sequence (P22002 whole entry): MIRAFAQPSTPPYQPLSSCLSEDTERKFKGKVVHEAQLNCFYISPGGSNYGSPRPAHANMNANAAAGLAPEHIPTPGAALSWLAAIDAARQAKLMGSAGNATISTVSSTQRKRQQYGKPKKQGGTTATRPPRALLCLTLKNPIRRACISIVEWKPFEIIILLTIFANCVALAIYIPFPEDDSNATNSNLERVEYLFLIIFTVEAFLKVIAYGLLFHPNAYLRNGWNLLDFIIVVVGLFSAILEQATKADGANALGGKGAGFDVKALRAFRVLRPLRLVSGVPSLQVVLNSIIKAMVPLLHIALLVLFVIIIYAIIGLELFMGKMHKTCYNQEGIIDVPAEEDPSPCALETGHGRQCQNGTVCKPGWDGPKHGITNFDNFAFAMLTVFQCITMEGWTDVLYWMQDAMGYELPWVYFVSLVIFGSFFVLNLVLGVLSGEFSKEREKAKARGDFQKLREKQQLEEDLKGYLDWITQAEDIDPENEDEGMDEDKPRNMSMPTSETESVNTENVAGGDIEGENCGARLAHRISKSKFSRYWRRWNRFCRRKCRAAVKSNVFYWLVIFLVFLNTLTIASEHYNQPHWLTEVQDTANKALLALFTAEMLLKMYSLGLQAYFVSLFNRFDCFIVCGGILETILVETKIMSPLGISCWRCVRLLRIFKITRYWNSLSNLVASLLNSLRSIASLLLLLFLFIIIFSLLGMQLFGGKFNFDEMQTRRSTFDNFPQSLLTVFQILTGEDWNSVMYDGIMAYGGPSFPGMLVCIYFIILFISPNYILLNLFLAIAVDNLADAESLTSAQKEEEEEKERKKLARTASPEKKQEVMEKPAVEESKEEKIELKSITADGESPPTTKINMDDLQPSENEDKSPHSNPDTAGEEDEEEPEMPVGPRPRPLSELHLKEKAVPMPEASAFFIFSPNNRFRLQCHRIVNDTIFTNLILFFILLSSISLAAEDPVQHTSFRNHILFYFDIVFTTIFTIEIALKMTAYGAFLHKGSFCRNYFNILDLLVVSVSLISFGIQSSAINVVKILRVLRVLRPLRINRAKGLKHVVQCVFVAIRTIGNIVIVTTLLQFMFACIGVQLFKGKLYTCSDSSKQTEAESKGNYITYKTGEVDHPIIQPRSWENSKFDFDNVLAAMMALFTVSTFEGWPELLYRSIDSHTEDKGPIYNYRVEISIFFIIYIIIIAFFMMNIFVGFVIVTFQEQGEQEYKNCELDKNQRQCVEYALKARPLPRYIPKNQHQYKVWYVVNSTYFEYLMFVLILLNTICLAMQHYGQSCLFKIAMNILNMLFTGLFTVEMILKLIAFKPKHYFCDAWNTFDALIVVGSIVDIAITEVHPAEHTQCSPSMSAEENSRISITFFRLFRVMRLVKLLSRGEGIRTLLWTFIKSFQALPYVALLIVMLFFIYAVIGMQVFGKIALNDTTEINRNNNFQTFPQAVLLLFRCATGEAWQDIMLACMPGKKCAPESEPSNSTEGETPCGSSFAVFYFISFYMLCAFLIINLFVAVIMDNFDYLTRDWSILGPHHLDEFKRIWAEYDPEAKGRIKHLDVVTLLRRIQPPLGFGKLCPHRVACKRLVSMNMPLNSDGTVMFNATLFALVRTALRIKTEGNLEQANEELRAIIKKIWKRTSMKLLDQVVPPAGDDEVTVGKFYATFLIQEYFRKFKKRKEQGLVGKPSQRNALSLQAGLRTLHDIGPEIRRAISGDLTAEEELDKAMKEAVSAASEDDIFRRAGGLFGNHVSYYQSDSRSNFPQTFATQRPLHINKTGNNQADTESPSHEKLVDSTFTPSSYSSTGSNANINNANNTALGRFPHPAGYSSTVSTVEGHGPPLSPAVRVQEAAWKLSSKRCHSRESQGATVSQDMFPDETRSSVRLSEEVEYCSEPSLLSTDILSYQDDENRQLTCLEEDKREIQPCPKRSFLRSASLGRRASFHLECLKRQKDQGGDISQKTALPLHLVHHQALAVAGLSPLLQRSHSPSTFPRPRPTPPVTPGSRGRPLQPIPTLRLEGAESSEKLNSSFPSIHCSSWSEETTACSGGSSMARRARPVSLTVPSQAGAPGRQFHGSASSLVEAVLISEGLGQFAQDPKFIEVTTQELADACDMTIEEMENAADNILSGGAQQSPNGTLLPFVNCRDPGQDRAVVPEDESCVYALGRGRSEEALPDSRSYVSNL
isolated strips of the descending aorta, sequence (P54290 25-944 partner limits assumed): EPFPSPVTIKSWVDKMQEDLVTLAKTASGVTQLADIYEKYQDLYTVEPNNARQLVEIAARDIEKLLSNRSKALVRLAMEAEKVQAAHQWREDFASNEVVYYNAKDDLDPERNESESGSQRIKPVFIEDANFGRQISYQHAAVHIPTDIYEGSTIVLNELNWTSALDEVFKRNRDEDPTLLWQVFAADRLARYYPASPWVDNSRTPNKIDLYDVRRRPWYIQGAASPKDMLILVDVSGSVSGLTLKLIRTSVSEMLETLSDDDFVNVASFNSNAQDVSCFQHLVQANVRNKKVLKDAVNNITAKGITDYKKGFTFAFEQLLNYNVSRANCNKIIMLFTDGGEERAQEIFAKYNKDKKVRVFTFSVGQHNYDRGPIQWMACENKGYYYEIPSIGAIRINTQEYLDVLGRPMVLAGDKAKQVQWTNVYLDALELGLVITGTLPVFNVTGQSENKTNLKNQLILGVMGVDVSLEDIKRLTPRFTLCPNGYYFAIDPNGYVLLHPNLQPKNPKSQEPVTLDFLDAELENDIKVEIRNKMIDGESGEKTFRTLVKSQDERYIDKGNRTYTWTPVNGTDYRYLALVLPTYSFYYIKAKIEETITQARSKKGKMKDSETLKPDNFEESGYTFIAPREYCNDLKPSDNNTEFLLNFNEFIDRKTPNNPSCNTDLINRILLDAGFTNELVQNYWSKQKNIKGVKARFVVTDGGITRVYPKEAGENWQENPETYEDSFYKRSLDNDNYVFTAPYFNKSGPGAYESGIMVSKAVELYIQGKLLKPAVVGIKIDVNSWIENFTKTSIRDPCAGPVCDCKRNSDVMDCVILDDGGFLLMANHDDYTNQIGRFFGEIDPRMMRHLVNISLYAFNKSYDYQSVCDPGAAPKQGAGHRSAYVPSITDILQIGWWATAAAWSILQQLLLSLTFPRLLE
isolated strips of the descending aorta, sequence (P54290 945-1091 partner limits assumed): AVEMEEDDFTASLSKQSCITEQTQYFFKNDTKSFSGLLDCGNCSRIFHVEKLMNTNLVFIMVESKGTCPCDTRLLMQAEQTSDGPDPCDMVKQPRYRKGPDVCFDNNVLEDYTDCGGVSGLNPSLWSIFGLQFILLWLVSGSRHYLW
Experimental: The in vitro calcium antagonistic activity of the subject compounds of the formula (I) was evaluated according to substantially the same method as that of Toda et al., J. Pharmacol. Exp. Ther. 181, 512 (1972) and ibid., 191, 139 (1974).
Male Wistar rats weighing 300-400 g were stunned by a sharp blow to the head. The isolated strips of the descending aorta were-fixed vartically in a 50 ml organ both containing Krebs-Henseleit solution maintained at 37° C. and saturated with a 95% O2 +5% CO2 gas mixture. Isometric tension was measured with a foree-displacement transducer and recorded on a polygraph recorder. During a 60-90 min equilibration period the resting tension was repeatedly adjusted to 1 g. The vessels having ability to potassium-induced contractions were exposed to a Ca^2+ -free medium for 30 min and then to 25 mM K^+ solution. When a contractile plateau was reached, Ca^2+ was added, and the cumulative response to 0.25, 0.5 and 4 mM Ca^2+ was recorded. After wash-out and a equilibration period with renewed testing of contractile ability, the preparations were once more exposed to Ca^2+ -free medium. The test compound was added to the organ bath 5 min before administration of potassium. Calcium was cumulatively added once again and the contractile response so obtained was expressed in percent of the contraction elicited by 4 mM Ca^2+. Dose-response curves for Ca^2+ were carried out cumulatively in the absence or presence of increasing concentrations of test compound. The pA2 values were calculated by the method of Arunlakshana et al., Brit. J. Pharmacol., 14, 48 (1959).

[2] = system: isolated rabbit aortic strip; assay: inhibition of norepinephrine-induced contractions of isolated rabbit aortic strip potentiated by ouabain; format: cell-based; conditions: Oryctolagus cuniculus, read-out: concentration at which norepinephrine-induced contractions are inhibited
SHR = assay: 4 weeks administration to SHR, hypotensive potency; format: in vivo, spontaneous hypertensive rats (SHR); conditions: 15 mg/kg/day po
Experimental: The hypotensive potency of the compound D was also compared with that of nicardipine by administering to the SHR for 4 weeks at 15 mg/kg/day, po.

[3] = system: mean arterial blood pressure; assay: antihypertensive vasodilating activity in anesthetized, ganglion-blocked rats with blood pressure maintained by intravenous angiotensin II; format: in vivo; conditions: 0.01 mg/kg and 0.003 mg/kg
Experimental: The anesthetized and ganglion-blocked rats whose blood pressure were maintained by an intravenous infusion of angiotensin II were prepared and the test compounds were evaluated according to substantially the same method as that of Deitchman et al., J. Pharmacol Methods, 3, 311 (1980).

[4] = system: spontaneous hypertensive rats (SHR); assay: single oral administration to spontaneous hypertensive rats (SHR), antihypertensive activity; format: in vivo; conditions: compound D 1 mg/kg vs nicardipine 3 mg/kg
[5] = system: physiological saline loaded rats; assay: diuretic activity in physiological saline loaded rats; format: in vivo; conditions: compound D 3 mg/kg po vs nicardipine 10 mg/kg po

Kb [1] [nM]	SMILES	minimal effective concentration [2] [µM]	also measured
0.363	COC(=O)C1=C(C)NC(C)=C(c2nc(CN3CCCCC3)no2)C1c1ccccc1 (centres unmarked) [B, Methyl 1,4-dihydro-2,6-dimethyl-3-(3-piperidinomethyl-1,2,4-oxadiazol-5-yl)-4-phenylpyridine-5-carboxylate hydrochloride]		
0.186	COC(=O)C1=C(C)NC(C)=C(c2nc(CN(C)Cc3ccccc3)no2)C1c1cccc([N+](=O)[O-])c1 (centres unmarked) [D, Methyl 1,4-dihydro-2,6-dimethyl-3-[3-(N--benzyl-N--methylamino)methyl-1,2,4-oxadiazol-5-yl]-4-(3-nitrophenyl)-pyridine-5-carboxylate hydrochloride]	0.01	antihypertensive effects in comparison with nifedipine and nicardipine [3]: dose-dependently more potent and long acting antihypertensive effects in comparison with nifedipine and nicardipine; antihypertensive activity in SHR [4]: about the same antihypertensive activity as that of nicardipine 3 mg/kg; duration of antihypertensive effect in SHR [4]: continued much longer than that of nicardipine; antihypertensive activity on 4 weeks administration (SHR): apparent antihypertensive activity; heart rate (SHR): slight decrease of heart rate; diuretic activity [5]: about the same diuretic activity as that of nicardipine 10 mg/kg, po
0.129	COC(=O)C1=C(C)NC(C)=C(c2nc(CN3CCCCC3)no2)C1c1ccc(Cl)c(Cl)c1 (centres unmarked) [C, Methyl 1,4-dihydro-2,6-dimethyl-3-(3-piperidinomethyl-1,2,4-oxadiazol-5-yl)-4-(3,4-dichlorophenyl)pyridine-5-carboxylate hydrochloride]		
0.0457	COC(=O)C1=C(C)NC(C)=C(c2nc(CNC(C)c3ccccc3)no2)C1c1cccc([N+](=O)[O-])c1 (stereo not drawn) [E, Methyl 1,4-dihydro-2,6-dimethyl-3-[3-(α-methylbenzylamino)methyl-1,2,4-oxadiazol-5-yl]-4-(3-nitrophenyl)-pyridine-5-carboxylate citrate]		
0.0309	COC(=O)C1=C(C)NC(C)=C(c2nc(CN3CCCCC3)no2)C1c1cccc([N+](=O)[O-])c1 (centres unmarked) [A, Methyl 1,4-dihydro-2,6-dimethyl-3-(3-piperidinomethyl-1,2,4-oxadiazol-5-yl)-4-(3-nitrophenyl)pyridine-5-carboxylate hydrochloride]		

Further lines, the molecule ahead of its results:

SMILES	Kb [1] [nM]	minimal effective concentration [2] [µM]	also measured
COC(=O)C1=C(C)NC(C)=C(c2nc(CN(C)CCc3ccc(OC)c(OC)c3)no2)C1c1cccc([N+](=O)[O-])c1 (centres unmarked) [F, Methyl 1,4-dihydro-2,6-dimethyl-3-[3-[N--(3,4-dimethoxyphenethyl)-N--methyl-amino]methyl-1,2,4-oxadiazol-5-yl]-4-(3-nitrophenyl)pyridine-5-carboxylate hydrochloride]	0.0955	0.01	
COC(=O)C1=C(C)NC(C)=C(C(=O)OCCN(C)Cc2ccccc2)C1c1cccc([N+](=O)[O-])c1 (centres unmarked) [Compound R3, 2-(N--Benzyl-N--methylamino)ethyl methyl 1,4-dihydro-2,6-dimethyl-4-(3-nitrophenyl)pyridine-3,5-dicarboxylate, reference compound]	0.417	> 0.1	antihypertensive activity on 4 weeks administration (SHR): no significant effects
CC1=C(C(=O)OC(C)C)C(c2cccc([N+](=O)[O-])c2)C(c2nc(CN(C)Cc3ccccc3)no2)=C(C)N1 (centres unmarked) [G, Isopropyl 1,4-dihydro-2,6-dimethyl-3-[3-(N--benzyl-N--methylamino)methyl-1,2,4-oxadiazol-5-yl]-4-(3-nitrophenyl)-pyridine-5-carboxylate hydrochloride]	0.355		
COC(=O)C1=C(C)NC(C)=C(c2nc(C)no2)C1c1cccc([N+](=O)[O-])c1 (centres unmarked) [Compound R1, Methyl 1,4-dihydro-2,6-dimethyl-3-(3-methyl-1,2,4-oxadiazol-5-yl)-4-(3-nitrophenyl)pyridine-5-carboxylate, reference compound]	32.4		calcium antagonistic potency: times less potent than the subject compounds ([1]; R1 compared with compounds A-G): 100-1000 times
